Here are results for 3 compounds from patent US12139488B2, “Pyrido[3,2-d]pyrimidine compounds uses thereof for treating a proliferative disease” (Universite de Montreal, priority 2021, dated 2024).

Common to all, as to assay type: cell-based, human
The test system of test [1] is pERK in Mewo cells (NF1 LOF). Description: Phospho-ERK inhibition (AlphaLISA), Mewo. The note with it: for Mewo pERK % Ymin: value in parentheses. How it is done: (§1) All cancer cell lines (A375, A101D, A2058, RKO, HT29 SK-MEL 30, IPC298, HepG2, HCT-116, Lovo, SWV620, SW480, NCI-H358, NCI-H2122, Calu-6, NCIH2087, NCIH1755, NCIH1666 and Mewo) were obtained from ATCC and cultured in RPMI-1640 medium (Gibco) supplemented with 5% heat inactivated fetal bovine serum (FBS, Wisent) at 37° C. under 5% CO2. Cells were maintained in T175 flasks (Greiner). They were passaged by removing the culture medium, washing once in 10 mL of room temperature Phosphate Buffered Saline (PBS; Wisent) and incubating at 37° C. with 2 mL of 0.05% Trypsin (Thermo-Fisher). Trypsin was then inactivated by adding complete growth medium and the cells were then replated in a T175 culture dish at the appropriate dilution. All cell lines were routinely tested for mycoplasma contamination. Tissue type and mutational status of each cell line can be found in Table B.
(§2) AlphaLISA® SureFire® Ultra™ p-ERK 1/2 (Thr202/Tyr204) analysis was conducted on cells plated in 100 μL of complete RPMI-1640 growth medium in 96-well flat-bottomed transparent dishes (Costar) at a density indicated in Table C. Cells were maintained overnight at 37° C. under 5% CO2 before treatment with compounds' dilution series for one hour. The cell density in cells/cm^2 corresponds to cell number divided by the area of one well of a 96-well plate ([…]).
(§3) In a dilution series 100 μL/well of test substance dilution prepared in complete RPMI-1640 growth media was added to the cells. The dilution series is selected so that ten concentrations cover a range from 10 μM to 0.33 nM. If necessary the initial concentration of 10 μM is increased to 100 μM or lowered to 1 μM (as in the case of A375 and H1666 cells, which are generally more sensitive to the compounds) and further dilution is carried out accordingly. The final concentration of DMSO in the assay is set at 0.5%.
(§4) After treatment, media was removed and cells were lysed in 50 μL of 1× AlphaScreen Ultra Lysis Buffer (Perkin Elmer). The AlphaLISA® SureFire® Ultra™ p-ERK 1/2 (Thr202/Tyr2O4) (PerkinElmer) reactions were performed with 5 μL of cell lysate according to the manufacturer's specifications in 384-well proxyplates (Perkin Elmer) followed by overnight incubation of the reactions at room temperature in a humidified chamber. After completion of the reactions, the signals were recorded on an EnVision plate reader (Perkin Elmer) using built in AlphaLISA® settings.
(§5) The effect of each compound dilution on the pERK signal was expressed in % inhibition and calculated as follows. An internal 100% inhibition control ([…] trametinib, cat #HY-10999; MedChem Express; CAS #871700-17-3) was included in each plate and used as a measure of pERK background. First, the value obtained for trametinib was subtracted from each data point. The average of DMSO (vehicle) controls (set as 0% inhibition) was established and used to calculate % inhibition: % inhibition=100*(1-((pERK signalcompound)/(pERK signalDMSO)))
(§6) The ability of each compound to inhibit pERK signal was expressed as an IC50 value obtained by plotting the inhibition values for each data point of a dilution series and fitting the obtained curves using a log(agonist) versus response-variable slope (four parameters) function using GraphPadPrism (V7.0) or Dotmatics Screening Ultra platform.
(§7) When present, paradoxical pERK induction is inferred from the negative % inhibition values observed in the pERK IC50 curves of a compound.

Test [2] relates to NCIH2087 cells (BRAF L597V; KRAS Q61K). Description: Proliferation inhibition (CellTiter-Glo), NCIH2087. The note with it: NCIH2087, 3 days, read-out: NCIH2087 Prolif. EC50. How it is done: as §1
(§8) CellTiter-Glo® viability analysis was conducted on cells plated in 100 μL of complete RPMI-1640 growth medium in 96-well flat-bottomed white opaque plates (Greiner or Croning) at a density indicated in Table E (for each CCL, number of cells plated per well of a 96-well plate to perform the CellTiter-Glo® cell viability assay). The cell density in cells/cm^2 would correspond to cell number divided by the area of one well of a 96-well plate (0.32 cm^2). […]
(§9) After 3 days of incubation, the growth media were removed by aspiration and 60 μL of diluted CellTiter-Glo® reagent (10 μL CellTiter-Glo® reagent+50 μL of PBS) was added to each well. […] Luminescence signals were then acquired on a Synergy Neo2 plate reader (Biotek).
(§10) The effect of each compound dilution on the proliferation of cancer cell lines was expressed in % inhibition and calculated as follows. […]
(§11) The ability of each compound to inhibit proliferation was expressed as a EC50 value obtained by plotting the effect values for each data point of a dilution series and fitting the obtained curves using a log(agonist) versus response-variable slope (four parameters) function using GraphPadPrism (V7.0) or Dotmatics Screening Ultra platform.
Background: In ATP-based viability assays light output follows the ATP content of the culture.

Test [3] concerns Calu-6 cells (KRAS Q61K). The test can be described thus: Proliferation inhibition (CellTiter-Glo), Calu-6. Conditions: Calu6, 3 days, read-out: Calu6 Prolif. EC50. The procedure:
as §1, §8, §9, §10, §11

The test system of test [4] is NCI-H2122 cells (KRAS-G12C). The test can be described thus: Proliferation inhibition (CellTiter-Glo), NCI-H2122. Conditions: NCI-H2122, 3 days, read-out: NCI-H2122 Prolif. EC50. The procedure: as §1, §8, §9, §10, §11
For test [5], the system named is pERK in NCIH2087 cells (BRAF L597V; KRAS Q61K). The test can be described thus: Phospho-ERK inhibition (AlphaLISA), NCIH2087. Conditions: for NCIH2087 pERK % Ymin: NCIH2087, value in parentheses. How it is done: as §1, §2, §3, §4, §5, §6, §7
Background: In Alpha technology, singlet oxygen from a donor bead excites a nearby acceptor bead.

Test [6] deals with pERK in NCI-H2122 cells (KRAS-G12C). Description: Phospho-ERK inhibition (AlphaLISA), NCI-H2122. The note with it: for IC50: NCI-H2122; for NCI-H2122 pERK % Ymin: NCI-H2122, value in parentheses. The procedure:
as §1, §2, §3, §4, §5, §6, §7

SMILES strings stand for the structures. Like-named read-outs stand apart in the source and are kept apart here.

In general, IC50 refers to the midpoint of a concentration-inhibition curve. High values mean lower potency, low ones higher potency. In general, EC50 refers to the concentration that produces a half-maximal response. Consider `CC1(O)CCN(c2cccc3c2ncn3-c2ccc3ncnc(Nc4c(F)ccc(NS(=O)(=O)c5cccc(Cl)c5Cl)c4F)c3n2)CC1` [Example 524], for which the IC50 in test [1] (Mewo) is 30 to 300 nM; in test [5] (NCIH2087) it was below 30 nM; in test [6], 30 to 300 nM. The “Mewo pERK % Ymin” value in test [1] (Mewo) is reported as −5%. Moreover, the EC50 in test [2] was below 30 nM; in test [3], 300 to 3000 nM; in test [4], 300 to 3000 nM. The “NCIH2087 pERK % Ymin” value in test [5] came out at 3%. In addition, the “NCI-H2122 pERK % Ymin” value in test [6] was determined as 13%.

As for `Cc1ccc2c(Nc3cccc(Cl)c3F)nccc2c1NC(=O)c1csc2c(N)ncnc12` [Belvarafenib, reference compound], the half-maximal inhibitory concentration (IC50) in test [1] (Homo sapiens, MeWo) is 30 to 300 nM; in test [5] (Homo sapiens, NCI-H2087), below 30 nM; in test [6] (Homo sapiens), 30 to 300 nM. Further, the “Mewo pERK % Ymin” value in test [1] (Mewo) was −116%. Also, the EC50 is below 30 nM in test [2] (Homo sapiens, NCI-H2087, 72 h); below 30 nM in test [3] (Homo sapiens, Calu-6, 72 h); 300 to 3000 nM in test [4] (Homo sapiens, 72 h). The “NCIH2087 pERK % Ymin” value in test [5] is given as 6%. The “NCI-H2122 pERK % Ymin” value in test [6] is on record as −9%.

In the case of `Nc1cccc2c1ncn2-c1ccc2ncnc(Nc3c(F)ccc(NS(=O)(=O)c4cccc(Cl)c4Cl)c3F)c2n1` [Example 99], the figures for the half-maximal inhibitory concentration (IC50) in test [1] (Mewo), in test [5] (NCIH2087) and in test [6] were 30 to 300 nM, below 30 nM and 30 to 300 nM, respectively. Also, the “Mewo pERK % Ymin” value in test [1] (Mewo) was −7%. The EC50 in test [2], in test [3] and in test [4] was 300 to 3000 nM in each case. Further, the “NCIH2087 pERK % Ymin” value in test [5] was found to be 15%. The “NCI-H2122 pERK % Ymin” value in test [6] was −3%.
